Test results published in ChEMBL document CHEMBL1134376, “Structure-activity relationship studies of 4-[2-(diphenylmethoxy)ethyl]-1-benzylpiperidine derivatives and their N-analogues: evaluation of O-and N-analogues and their binding to monoamine transporters” (J Med Chem, 2001).

How the values were obtained:
[1] = target: Norepinephrine transporter (Rattus norvegicus, UniProt Q9WTR4); experiment: Affinity at norepinephrine transporter (NET) in rat striatum, using [3H]- nisoxatine as radioligand; assay type: tissue-based
Sequence of Norepinephrine transporter (Q9WTR4 whole entry): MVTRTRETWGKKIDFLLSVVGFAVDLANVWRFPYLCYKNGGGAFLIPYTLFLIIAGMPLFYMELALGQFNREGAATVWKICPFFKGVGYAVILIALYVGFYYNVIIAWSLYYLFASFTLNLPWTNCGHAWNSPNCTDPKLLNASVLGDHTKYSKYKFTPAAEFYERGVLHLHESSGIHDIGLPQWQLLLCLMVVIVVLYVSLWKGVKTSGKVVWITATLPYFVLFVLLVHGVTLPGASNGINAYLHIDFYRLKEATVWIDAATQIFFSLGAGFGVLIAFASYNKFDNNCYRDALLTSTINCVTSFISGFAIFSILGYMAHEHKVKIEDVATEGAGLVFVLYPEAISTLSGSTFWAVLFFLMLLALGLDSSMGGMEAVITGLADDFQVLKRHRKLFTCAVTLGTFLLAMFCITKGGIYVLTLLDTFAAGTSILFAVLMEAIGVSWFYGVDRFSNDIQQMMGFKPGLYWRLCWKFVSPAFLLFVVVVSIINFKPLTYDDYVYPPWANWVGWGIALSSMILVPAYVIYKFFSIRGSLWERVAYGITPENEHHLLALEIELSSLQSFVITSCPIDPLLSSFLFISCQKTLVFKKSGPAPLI

[2] = organism: Rattus norvegicus; experiment: Inhibition of dopamine reuptake ([3H]DA uptake) in […]; assay type: functional
[3] = target: Monoamine transporters; serotonin & dopamine (Rattus norvegicus) (UniProt P31652+P23977); experiment: Selectivity for serotonin transporter compared to dopamine transporter.; assay type: protein assay
Sequence of Monoamine transporters; serotonin & dopamine (Rattus norvegicus) (P23977 whole entry, looked up): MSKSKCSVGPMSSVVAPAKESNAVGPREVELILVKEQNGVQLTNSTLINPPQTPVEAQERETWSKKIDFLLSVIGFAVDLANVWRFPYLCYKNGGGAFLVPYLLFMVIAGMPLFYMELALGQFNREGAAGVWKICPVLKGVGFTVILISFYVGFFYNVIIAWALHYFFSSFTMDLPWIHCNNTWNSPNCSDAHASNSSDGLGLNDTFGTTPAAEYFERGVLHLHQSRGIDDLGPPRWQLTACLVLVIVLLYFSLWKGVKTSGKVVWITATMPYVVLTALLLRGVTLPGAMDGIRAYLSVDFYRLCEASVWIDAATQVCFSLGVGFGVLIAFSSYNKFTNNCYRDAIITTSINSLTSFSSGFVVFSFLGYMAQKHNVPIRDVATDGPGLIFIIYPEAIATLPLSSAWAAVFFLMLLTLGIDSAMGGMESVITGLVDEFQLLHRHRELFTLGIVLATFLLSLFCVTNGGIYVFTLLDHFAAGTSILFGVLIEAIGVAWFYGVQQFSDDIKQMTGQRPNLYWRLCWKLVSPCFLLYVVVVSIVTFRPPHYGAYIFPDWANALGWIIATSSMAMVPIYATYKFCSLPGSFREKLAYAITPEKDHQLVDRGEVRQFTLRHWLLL
Sequence of Monoamine transporters; serotonin & dopamine (Rattus norvegicus) (P31652 whole entry, looked up): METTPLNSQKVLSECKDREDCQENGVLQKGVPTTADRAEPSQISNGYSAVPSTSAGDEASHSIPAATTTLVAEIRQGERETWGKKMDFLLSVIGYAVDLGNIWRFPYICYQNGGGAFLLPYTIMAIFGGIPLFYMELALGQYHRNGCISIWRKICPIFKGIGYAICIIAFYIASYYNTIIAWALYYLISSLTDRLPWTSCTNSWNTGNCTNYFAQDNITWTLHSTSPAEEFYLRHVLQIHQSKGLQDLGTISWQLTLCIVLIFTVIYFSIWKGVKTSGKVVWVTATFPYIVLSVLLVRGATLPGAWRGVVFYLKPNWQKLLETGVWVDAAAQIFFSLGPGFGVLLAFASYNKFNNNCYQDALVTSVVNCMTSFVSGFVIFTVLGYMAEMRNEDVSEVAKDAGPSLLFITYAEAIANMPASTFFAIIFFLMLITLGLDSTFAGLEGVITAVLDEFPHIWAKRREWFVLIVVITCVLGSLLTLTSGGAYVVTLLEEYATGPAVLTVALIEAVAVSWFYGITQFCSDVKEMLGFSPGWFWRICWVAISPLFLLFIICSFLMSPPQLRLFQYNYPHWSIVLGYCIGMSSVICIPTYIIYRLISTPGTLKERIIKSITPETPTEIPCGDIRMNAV

[4] = target: Sodium-dependent dopamine transporter (Rattus norvegicus, UniProt P23977); experiment: In vitro binding affinity at dopamine transporter in rat striatum by [3H]WIN-35428 displacement.; assay type: tissue-based
Sequence of Sodium-dependent dopamine transporter (P23977 whole entry): as the sequence (P23977 whole entry, looked up) above

[5] = target: Sodium-dependent serotonin transporter (Rattus norvegicus, UniProt P31652); experiment: In vitro binding affinity at serotonin transporter in rat striatum by [3H]- citalopram displacement.; assay type: tissue-based
Sequence of Sodium-dependent serotonin transporter (P31652 whole entry): as the sequence (P31652 whole entry, looked up) above

[6] = target: Sodium-dependent dopamine transporter (Rattus norvegicus) (UniProt P23977); experiment: Ratio of ([3H]-DA uptake) / [3H]WIN-35428 binding was determined in […]
Sequence of Sodium-dependent dopamine transporter (Rattus norvegicus) (P23977 whole entry, looked up): as the sequence (P23977 whole entry, looked up) above

IC50 [4] [nM]	IC50 [5] [nM]	SMILES	IC50 [1] [nM]	IC50 [2] [nM]	Ratio [3]	Ratio [6]
		N#Cc1ccc(CN2CCC(CCOC(c3ccccc3)c3ccccc3)CC2)cc1	342	4.58	615	
213	1660	CN(CCC1CCN(Cc2ccc(F)cc2)CC1)C(c1ccccc1)c1ccccc1			7.8	
		Fc1ccc(CN2CCC(CCOC(c3ccccc3)c3ccccc3)CC2)cc1		2.48	113	
		Fc1ccc(CN2CCC(CCNC(c3ccccc3)c3ccccc3)CC2)cc1	945	12	62	1.33
		Fc1ccc(C(NCC2CCN(CCc3ccccc3)CC2)c2ccc(F)cc2)cc1			17	
		Fc1cccc(CN2CCC(CCOC(c3ccccc3)c3ccccc3)CC2)c1			49	
		Fc1ccc(CN2CCC(CCOC(c3ccccc3)c3ccccc3)CC2)cc1F	921		122	
		Fc1ccc(CN2CCC(CNOC(c3ccccc3)c3ccccc3)CC2)cc1	691	16.6	19	0.48
751	5860	CC(OCCC1CCN(Cc2ccc(F)cc2)CC1)c1ccccc1 (centres undefined)			7.8	
		Fc1ccc(CN2CCC(CNCC(c3ccccc3)c3ccccc3)CC2)cc1	1100	49.6	7	2.5
		CS(=O)(=O)Nc1ccc(CN2CCC(CCOC(c3ccccc3)c3ccccc3)CC2)cc1		9.73	22	0.36
		CN(CC1CCN(Cc2ccc(F)cc2)CC1)CC(c1ccccc1)c1ccccc1			27	
		FC(F)(F)c1ccc(CN2CCC(CCOC(c3ccccc3)c3ccccc3)CC2)cc1			71	
		c1ccc(CN2CCC(CCNC(c3ccccc3)c3ccccc3)CC2)cc1	2620	20.6		
		CC(NCCC1CCN(Cc2ccc(F)cc2)CC1)c1ccccc1 (centres undefined)			3.2	
		Fc1ccc(CN2CCC(CCNC(c3ccccc3)c3ccccc3)CC2)cc1F	1030	10.7		

SMILES	IC50 [4] [nM]	IC50 [5] [nM]	IC50 [1] [nM]	IC50 [2] [nM]	Ratio [3]	Ratio [6]
O=C(Cc1ccccc1)N1CCC(CCOC(c2ccccc2)c2ccccc2)CC1		13200			6.1	
